A short description of experiment [1]: LNCaP side scatter shift induction by compounds – cell-based, flow cytometry, side scatter granularity, dose response (AID 1198). The conditions noted are these: LNCaP side scatter shift, flow cytometry, 4 days; at 30 µM (top of the series). (Flow cytometry measures light scatter and fluorescence of single cells or particles in a stream.)
For experiment [2], the system named is LNCaP side scatter shift, flow cytometry, 4 days. The description is as above.

Activity calls are given as the source filed them.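 The calls were made as follows: active = EC50 under 10 microM for raising side scatter, a sign of cell differentiation; inactive = the rest, including fits that never converged.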

With `CCCOc1ccccc1C1CC(=O)Nc2cc3c(cc21)OCO3` (stereo not drawn), the side scatter activation in experiment [1] is 0% (inactive).

Turning to `CN(C)CCCN1c2ccccc2CCc2ccc(Cl)cc21`, the side scatter activation in experiment [1] is 73% (inactive).

For `CCN1CCCC1CNC(=O)C1CCN(Cc2nc(-c3cccc(Br)c3)oc2C)CC1` (stereo not drawn), in experiment [2], the EC50 (commonly the concentration that produces a half-maximal response) is 1.12 µM.

For `COc1ccc(Nc2nc(N)nc(CN3CCC(Cc4ccccc4)CC3)n2)cc1`, the side scatter activation in experiment [1] is 73% (inactive).

Turning to `CCOc1ccccc1NC(=O)c1nc[nH]c1C(=O)Nc1ccccc1OCC`, the EC50 in experiment [2] is 6.66 µM.

As for `CC1CCCCN1CCNC(=O)c1cc2c(-c3ccccc3F)nn(C)c2s1` (stereo not drawn), the side scatter activation in experiment [1] is 84.3% (inactive).

Regarding `Cc1ccc(OCC(O)Cn2c(=N)n(CCN3CCCCC3)c3ccccc32)cc1` (stereo not drawn), the EC50 in experiment [2] is 4.11 µM.

In the case of `COc1ccc(N2CCN(CCCNC(=O)CCCn3c(=O)[nH]c4ccsc4c3=O)CC2)cc1`, in experiment [1], the side scatter activation was 1.98% (inactive).

In the case of `O=C(NCCCN1CCN(c2cccc(Cl)c2)CC1)c1cccc(N2CCCC2=O)c1`, the side scatter activation in experiment [1] was 38.5% (inactive).

In the case of `Nc1ccc(-n2ccnc2)cc1`, in experiment [1], the side scatter activation was 84.3% (inactive).

Consider `COc1ccc(N2CCN(CCCNC(=O)c3cc4sccc4n3C)CC2)cc1`, for which, in experiment [1], the side scatter activation is 40.2% (inactive).

As for `Cc1ccc2c(c1)-c1c(cnn1CC(=O)Nc1ccccc1N1CCN(C)CC1)CO2`, the EC50 in experiment [2] was 8.06 µM.

In the case of `COc1ccccc1N1CCN(c2nc3ccccc3nc2C(C#N)C(=O)OC(C)C)CC1` (stereo not drawn), the side scatter activation in experiment [1] was 44.4% (inactive).

With `COc1ccc(-c2ccc(-c3noc(-c4ccccc4)n3)c(OC)n2)cc1`, the EC50 in experiment [2] was 10.4 µM (inactive).

Take `CCN(CC)CCNC(=O)c1cc2c(-c3ccc(Cl)cc3)nn(C)c2s1`: the side scatter activation in experiment [1] is 31.1% (inactive).

Take `CN(CCNC(=O)C1CC(=O)N(c2ccc(F)c(Cl)c2)C1)Cc1ccccc1` (stereo not drawn): the side scatter activation in experiment [1] was 44.4% (inactive).

As for `Cn1c(=O)[nH]c(=O)c2c1nc(Br)n2CCCSc1nc2ccccc2o1`, the side scatter activation in experiment [1] is 1.98% (inactive).

For the molecule `CN1CCN(c2cc3c(c4c2[nH]c2ccccc24)C(=O)CC(C)(C)C3)CC1`, the EC50 in experiment [2] is 3.65 µM.

In the case of `CN(CC(O)COc1ccc(OCC(O)CN(C)C2CCCCC2)cc1)C1CCCCC1` (stereo not drawn), in experiment [2], the EC50 is 4.32 µM.

On to `Cn1c(=O)cc(OCC(=O)NCCCN2CCN(c3ccccc3F)CC2)c2ccccc21`, for which the side scatter activation in experiment [1] was 73% (inactive).

For the molecule `CCN(CCNC(=O)C1CCN(Cc2nc(-c3cccc(Cl)c3)oc2C)CC1)c1ccccc1`, the side scatter activation in experiment [1] is 0% (inactive).

For the molecule `Cc1noc(/C=C/c2ccco2)c1S(=O)(=O)N1CCC(C(=O)N2CCc3ccccc3C2)CC1`, the EC50 in experiment [2] was 5.2 µM.

In the case of `Cc1ccc(CNc2nc3ccccc3n3nnnc23)cc1`, in experiment [1], the side scatter activation is 40.2% (inactive).

With `CCOC(=O)c1[nH]c(C)c(C(=O)N2CCc3ccccc32)c1C`, the side scatter activation in experiment [1] is 1.98% (inactive).

For the molecule `Cc1cc(C)nc(N2CCC(C(=O)Nc3ccc(Oc4ccccc4)cc3)CC2)n1`, the side scatter activation in experiment [1] was 40.2% (inactive).

Take `COC(=O)c1cc(-c2ccccc2)sc1NC(=O)c1cc(C)on1`: the EC50 in experiment [2] is 1.87 µM.

In the case of `CCN1CCN(c2cc(C)c3cc(NC(=O)c4ccc(Br)o4)ccc3n2)CC1`, the side scatter activation in experiment [1] was 73% (inactive).

On to `O=C(Cn1cc2c(n1)CCCC2)NCCCN1CCN(c2ccccc2F)CC1`, for which the side scatter activation in experiment [1] was 31.1% (inactive).

On to `CC(C)N1CCC2(CC1)N=C(c1ccc3c(c1)OCO3)CC(c1cc(Cl)ccc1O)N2` (stereo not drawn), for which the side scatter activation in experiment [1] is 1.98% (inactive).

For the molecule `CCN1CCCC1CNC(=O)c1cc2c(-c3ccc(Cl)cc3)nn(C)c2s1` (stereo not drawn), the side scatter activation in experiment [1] was 84.3% (inactive).

On to `O=C(CCN1C(=O)COc2ccccc21)NCCCN1CCN(c2ccc(F)cc2)CC1`, for which the side scatter activation in experiment [1] is 40.2% (inactive).

Take `COc1ccc(-c2noc(CCC(=O)NCCCN3CCC(Cc4ccccc4)CC3)n2)cc1`: the side scatter activation in experiment [1] is 1.98% (inactive).

`Cc1ccc(Cl)cc1N1CCN(C(=O)c2cc3c(=O)n(C)c4ccccc4c3n2C)CC1`: the side scatter activation in experiment [1] was 0% (inactive).

For the molecule `CCn1c(=O)cc(SCC(=O)NCCN2CCN(Cc3ccccc3)CC2)c2ccccc21`, the side scatter activation in experiment [1] was 73% (inactive).

As for `Cc1cc(N2CCN(C)CC2)nc2ccc(NC(=O)c3ccc(Br)o3)cc12`, the EC50 in experiment [2] was 2.79 µM.

As to `O=C(c1ccccc1)c1ccc(N2CCNCC2)cc1`, in experiment [1], the side scatter activation is 73% (inactive).

Consider `COc1ccccc1NC(=O)c1nc[nH]c1C(=O)Nc1ccccc1OC`, for which the EC50 in experiment [2] was 9.52 µM.

Turning to `COc1ccc(-c2noc(-c3cc(Cl)ccc3Cl)n2)cc1OC`, the EC50 in experiment [2] is 5.7 µM.

For the molecule `O=C(NCCCN1CCN(c2ccc(F)cc2)CC1)c1cccc(N2CCCC2=O)c1`, in experiment [1], the side scatter activation is 73% (inactive).

For `CCN(CCNC(=O)C1CCN(Cc2nc(-c3ccc(Cl)cc3)oc2C)CC1)c1ccccc1`, the EC50 in experiment [2] was 2 µM.

Take `CCN1CCN(C(c2cccs2)C(C)NS(=O)(=O)c2ccc(Br)cc2)CC1` (stereo not drawn): the EC50 in experiment [2] was 15.2 µM (inactive).

Turning to `COc1ccc2cc3cc(C(=O)Nc4ccccc4N4CCN(C)CC4)oc3nc2c1`, the side scatter activation in experiment [1] is 44.4% (inactive).

`Cn1nc(-c2ccc(Cl)cc2)c2cc(C(=O)NCCCN3CCOCC3)sc21`: in experiment [2], the EC50 was 5.53 µM.

Regarding `COc1ccc(CCn2c(=N)c(C(=O)NCc3ccco3)cc3c(=O)n4ccccc4nc32)cc1`, in experiment [2], the EC50 was 7.49 µM.

For `CCN(CC)CC(=O)Nc1ccc(-c2nc3cc(NC(=O)CN(CC)CC)ccc3o2)cc1`, in experiment [2], the EC50 is 0.83 µM.

`CN(C)c1ccc(CNC2CC(C)(C)NC(C)(C)C2)cc1`: the EC50 in experiment [2] was 8.74 µM.

In the case of `CCN1CCN(CCNC(=O)C2CCN(Cc3nc(-c4ccc(Cl)cc4)oc3C)CC2)CC1`, in experiment [2], the EC50 is 16.6 µM (inactive).

For `Oc1c(CN2CCCCC2)cc(COCc2ccccc2)c2cccnc12`, the 50% effective concentration (EC50) in experiment [2] is 3.81 µM.

Consider `Cc1cc2c(=O)n(CC(=O)N3CCN(c4ccccc4)CC3)cnc2s1`, for which, in experiment [1], the side scatter activation is 84.3% (inactive).

Turning to `CCN(CC)CCNC(=O)c1ccc(N2CCCCC2)c(NS(=O)(=O)c2ccc(C)cc2)c1`, the side scatter activation in experiment [1] was 44.4% (inactive).

Regarding `CC(C)(C)c1ccc(C(O)CCCN2CCC(C(O)(c3ccccc3)c3ccccc3)CC2)cc1` (stereo not drawn), the side scatter activation in experiment [1] is 0% (inactive).

Consider `Cc1ccc(Nc2cc(=O)n(C3CCCCC3)c(=O)[nH]2)cc1C`, for which the side scatter activation in experiment [1] was 0% (inactive).

As for `Cc1cccc(-c2nsc(SCC(=O)Nc3nccs3)n2)c1`, the EC50 in experiment [2] is 12 µM (inactive).

In the case of `Cc1ccccc1-c1nc(CN2CCC(C(=O)NCCCN3CC(C)CC(C)C3)CC2)c(C)o1` (stereo not drawn), in experiment [1], the side scatter activation was 31.1% (inactive).

In the case of `Cc1ccccc1-c1nc(CN2CCC(C(=O)NCCCN3CCCC3)CC2)c(C)o1`, the side scatter activation in experiment [1] was 1.98% (inactive).

In the case of `COc1ccc(-c2cc(C(F)(F)F)nc(N3CCN(Cc4ccccc4)CC3)n2)cc1OC`, the side scatter activation in experiment [1] is 44.4% (inactive).

Consider `CCN(CC)CCCNC(=O)c1cc2c(-c3ccc(Cl)cc3)nn(C)c2s1`, for which the side scatter activation in experiment [1] was 84.3% (inactive).

On to `CN1CCN(CCCNC(=O)c2cc3c(-c4ccc(Cl)cc4)nn(C)c3s2)CC1`, for which the EC50 in experiment [2] was 6.41 µM.

For `Cc1oc(-c2ccc(Cl)cc2)nc1CN1CCC(C(=O)N2CCN(Cc3ccccc3)CC2)CC1`, the side scatter activation in experiment [1] was 31.1% (inactive).

As for `CCOC(=O)c1c(C)[nH]c(C(=O)COC(=O)C2CC2C)c1C` (stereo not drawn), the side scatter activation in experiment [1] is 73% (inactive).

In the case of `COc1ccc(CCN2CCC(Nc3nc4ccccc4n3Cc3ccc(F)cc3)CC2)cc1`, the side scatter activation in experiment [1] is 40.2% (inactive).

Consider `COc1ccc(Cc2nc(-c3ccc(-n4cccc4)cc3)no2)cc1OC`, for which the side scatter activation in experiment [1] is 1.98% (inactive).

As for `CCN1CCN(c2ncc(C(=O)Nc3cc(Cl)c(OC)cc3OC)c3ccccc23)CC1`, the EC50 in experiment [2] is 5.59 µM.

With `CC1CCCCN1CCNC(=O)c1ccc2c(=O)n(CCc3ccccc3)c(=O)[nH]c2c1` (stereo not drawn), the EC50 in experiment [2] is 6.5 µM.

With `O=S1(=O)C=C(Sc2nc3ccccc3s2)c2ccccc21`, the side scatter activation in experiment [1] was 0% (inactive).

For `Cn1c(=O)cc(SCC(=O)NCCCN2CCN(c3ccccc3F)CC2)c2ccccc21`, the side scatter activation in experiment [1] was 31.1% (inactive).

For `CCCS(=O)(=O)N1CCCC(C(=O)NCCCN2CCN(c3ccc(F)cc3)CC2)C1` (stereo not drawn), in experiment [1], the side scatter activation is 1.98% (inactive).

For `Clc1ccc(COC(Cn2ccnc2)c2ccc(Cl)cc2Cl)cc1` (stereo not drawn), in experiment [1], the side scatter activation was 0% (inactive).

For the molecule `CCOC(=O)c1c(C)n(C)c2ccc(OCC(O)CNC(CC)CO)cc12` (stereo not drawn), the side scatter activation in experiment [1] is 38.5% (inactive).

In the case of `CCn1c(=N)n(CC(O)COc2cccc(C)c2)c2ccccc21` (stereo not drawn), the side scatter activation in experiment [1] is 0% (inactive).

`COc1ccccc1N1CCN(Cc2cc(Br)c(O)c3ncccc23)CC1`: in experiment [1], the side scatter activation is 1.98% (inactive).

For the molecule `CCOC(=O)c1ccccc1NC(=O)Cn1c(-c2nonc2N)nc2ccccc21`, the side scatter activation in experiment [1] is 44.4% (inactive).

With `Cc1ccc(C)c(N2CCN(CCCNC(=O)Cn3cc4c(n3)CCCCC4)CC2)c1`, the side scatter activation in experiment [1] was 0% (inactive).

For the molecule `Cn1nc(-c2ccc(Cl)cc2)c2cc(C(=O)NCCCN3CCCC3)sc21`, the side scatter activation in experiment [1] was 84.3% (inactive).

Turning to `CCc1ccc(-c2nc(CN3CCC(C(=O)NCc4ccc(F)cc4)CC3)c(C)o2)cc1`, the side scatter activation in experiment [1] was 0% (inactive).

As to `O=c1cc(-c2ccccc2)[nH]c2ccccc12`, the side scatter activation in experiment [1] was 1.98% (inactive).

Regarding `Cc1nc2ncnn2c(C)c1CCC(=O)NCCCN1CCN(c2cccc(Cl)c2)CC1`, in experiment [1], the side scatter activation was 84.3% (inactive).

On to `COc1ccc(-c2oc3ncn(CCN4CCOCC4)c(=N)c3c2-c2ccc(OC)cc2)cc1`, for which the side scatter activation in experiment [1] is 44.4% (inactive).

As for `CCOc1ccc(NC(=O)COc2nsnc2N2CCCCC2)cc1`, the side scatter activation in experiment [1] was 0% (inactive).

For the molecule `Cc1ccccc1CS(=O)(=O)CCC(=O)NCCCN1CCN(c2ccccc2F)CC1`, the side scatter activation in experiment [1] was 31.1% (inactive).

`C[C@H]1CCC/C=C/C2C[C@H](O)CC2[C@H](O)/C=C/C(=O)O1` (stereo partly drawn): the side scatter activation in experiment [1] was 0% (inactive).

Consider `CCCc1cc(-c2n[nH]c(C)c2-c2ccc(C(=O)OCC)o2)c(O)cc1O`, for which the side scatter activation in experiment [1] was 1.98% (inactive).

As for `Cc1ccccc1-c1nc(CN2CCC(C(=O)NCc3cccnc3)CC2)c(C)o1`, the side scatter activation in experiment [1] is 38.5% (inactive).

(Values after PubChem BioAssay AID1198 (NMMLSC, 2008).)
